In assay [1] the test system is epimastigotes of T. cruzi (Tulahuen 2 strain). Put plainly: Anti-T. cruzi test in vitro (epimastigote growth inhibition). Particulars: for IC50: Trypanosoma cruzi, read-out: IC50 against T. cruzi; for SI (selectivity index): macrophages (J774.1) vs T. cruzi epimastigotes. It is filed as cell-based, Trypanosoma cruzi. How it is done: (§1) To evaluate the anti-trypanosomal activity of the synthesized 3H-[1,2]dithioles we used T. cruzi, Tulahuen 2 strain (discrete typing unit, DTU, TcVI [18]) in the epimastigote form. […] To establish the selectivity of the compounds against the parasite, unspecific cytotoxicity against mammalian cells (J774.1 murine macrophages) was studied for the most relevant derivatives. The selectivity indexes (SI) were also determined (Table 1).
We used epimastigotes of the Tulahuen 2 strain (DTU, Tc VI) growing in an axenic milieu (BHI-Tryptose). Cells from a 5–7-day-old culture were inoculated in fresh culture milieu to give an initial concentration of 1 × 10^6 cells/mL. The absorbance at 600 nm of the cells in culture was measured every day. At day 5, the milieu was inoculated with different quantities of the compounds from a stock solution in DMSO (DMSO concentration in the culture milieu never exceeded 0.4%). The control was made in the presence of 0.4% DMSO and in the absence of compounds. […] At day 5, the absorbance of the culture was measured and related to the control. The IC50 value was taken as the concentration of drug needed to reduce the absorbance ratio to 50%.

The target of assay [2] is T1, cruzipain (Trypanosoma cruzi, UniProt P25779).
T1 construct: endogenous in cells; host or cells: T. cruzi epimastigotes, Tulahuen 2 strain
The experiment in a line: Inhibition of T. cruzi cruzipain (Z-Phe-Arg-AMC fluorogenic substrate). Particulars: read-out: Cruzipain % Inhib100. It counts as biochemical. On the procedure: Initially, we tested the dithioles as inhibitors of the protease cruzipain from T. cruzi at a concentration of 100 μM.
Cruzipain was purified to homogeneity from epimastigotes of the Tulahuen 2 strain by ConA-Sepharose affinity chromatography, as previously described. Cruzipain (2.5 μM ε = 58,285 M^−1·cm^−1) was incubated in 50 mM acetate buffer pH 5.5 with 50 mM DTT and 100 μM inhibitor was added, shaking the solution for 15 min at 27 °C. The derivatives were added diluted in DMSO, and the controls contained the same solvent concentration. The concentration of DMSO never exceeded 1% in the reaction medium. E-64 was used as a positive control of inhibition. Then, the fluorogenic substrate Z-Phe-Arg-AMC (100 μM) was added and the fluorescence was measured during 10 min at intervals of 3 s (excitation at 350 nm and emission at 460 nm) using a Varioskan Flash Spectrophotometer. From the slope of the negative control, we calculated the total (100%) enzyme activity, while the slopes obtained in the presence of the compounds yielded the percentage of remaining enzyme activity. The percentage of enzyme inhibition was determined as […]. The experiments were done in duplicate.

In assay [3] the target is T2, Trypanosoma cruzi triosephosphate isomerase (TcTIM) (Trypanosoma cruzi, UniProt P52270).
T2 construct: made in house; host or cells: Escherichia coli
Put plainly: Inhibition of enzymatic activity of TcTIM. It is filed as biochemical. As to conditions: for IC50: isolated enzyme, 2 h incubation at 36 °C; for inhibition at 25 µM: read-out: TcTIM % Inhib25; for inhibition at 200 µM: read-out: TcTIM % Inhib200. How it is done: In order to investigate if the 3H-[1,2]dithioles inhibit TcTIM, we initially tested the inhibitory capacity of the compounds at a concentration of 200 μM and then at 25 μM.
Expression and purification of protein: TcTIM was expressed in Escherichia coli and purified as described in the literature. After purification, the enzyme, dissolved in 100 mM triethanolamine, 10 mM EDTA and 1 mM dithiothreitol (pH 8), was precipitated with ammonium sulfate (75% saturation) and stored at 4 °C. Before use, extensive dialysis against 100 mM triethanolamine/10 mM EDTA (pH 7.4) was performed. Protein concentration was determined by absorbance at 280 nm (ε = 36,440 M^−1·cm^−1).
Enzymatic activity assays. Enzymatic activity was determined following the conversion of glyceraldehyde 3-phosphate into dihydroxyacetone phosphate. The decrease in absorbance at 340 nm was followed in a multicell Cary spectrophotometer at 25 °C. The reaction mixture (1 mL, pH 7.4) contained 100 mM triethanolamine, 10 mM EDTA, 0.2 mM NADH, 1 mM glyceraldehyde 3-phosphate, and 0.9 units of α-glycerol phosphate dehydrogenase. The reaction was initiated by addition of 5 ng/mL of the TcTIM.
For inactivation studies, TcTIM was incubated at a concentration of 5 mg/mL in a buffer containing 100 mM triethanolamine, 10 mM EDTA, pH 7.4 and 10% of DMSO at 36 °C. The mixture also contained the compounds at the indicated concentrations. Compounds were dissolved in DMSO. After 2 h, […] was withdrawn and added to 1 mL of reaction mixture for the activity assay. None of the molecules tested here affected the activity of α-glycerol phosphate dehydrogenase, the enzyme used for trapping the product.
The IC50 value was taken as the concentration of drug needed to reduce the enzymatic activity to 50%. The experiments were performed in triplicate.

Assay [4] concerns J774.1 murine macrophages. Put plainly: Unspecific in vitro cytotoxicity of mammalian cells (MTT). It is filed as cell-based. Particulars: Mus musculus, 48 h exposure, read-out: IC50 against Macrophages. On the procedure: as §1
J774.1 murine macrophage cells (ATCC, Manassas, VA, USA) were grown in DMEM culture milieu containing 4 mM L-glutamine and supplemented with 10% heat-inactivated fetal calf serum. […] Afterwards, cells were exposed for 48 h to the compounds (25–400 μM) or vehicle for control (0.4% DMSO), and additional controls (cells in medium) were used in each test. Cell viability was then assessed by measuring the mitochondria-dependent reduction of MTT (3-(4,5-dimethylthiazol-2-yl)-2,5-diphenyltetrazolium bromide) to formazan. For this purpose, MTT in sterile PBS (0.2% glucose) pH 7.4 was added to the macrophages to achieve a final concentration of 0.1 mg/mL and the cells were incubated at 37 °C for 3 h. After removing the medium, formazan crystals were dissolved in 180 μL of DMSO and 20 μL of MTT buffer (0.1 M glycine, 0.1 M NaCl, 0.5 mM EDTA, pH 10.5) and the absorbance at 560 nm was measured. The IC50 was defined as the drug concentration at which 50% of the cells were viable, relative to the control (no drug added), and was determined by analysis using OriginLab8.5® sigmoidal regression (% of viable cells vs. logarithm of the compound concentration). Samples were performed in triplicate.

Assay [5] deals with T1, cruzipain. The experiment in a line: Inhibition of T. cruzi cruzipain (Z-Phe-Arg-AMC fluorogenic substrate). It counts as biochemical. As to conditions: isolated enzyme.
Setting [6] is: epimastigotes, Tulahuen 2 strain, triplicate.
Setting [7] is: percentage of enzymatic inhibition at 100 μM.
[8] abbreviates: percentage of enzymatic inhibition at 25 μM.
The mark [9] stands for this setting: percentage of enzymatic inhibition at 200 μM.

Like-named read-outs stand apart in the source and are kept apart here.

T2 sequence (P52270 whole entry): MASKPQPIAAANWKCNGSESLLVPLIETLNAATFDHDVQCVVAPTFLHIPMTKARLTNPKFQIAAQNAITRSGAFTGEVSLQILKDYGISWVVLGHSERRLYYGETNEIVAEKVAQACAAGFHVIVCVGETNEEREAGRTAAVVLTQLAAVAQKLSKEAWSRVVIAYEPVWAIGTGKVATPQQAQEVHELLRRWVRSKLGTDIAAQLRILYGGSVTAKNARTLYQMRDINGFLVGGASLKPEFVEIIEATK
T1 sequence (P25779 123-467): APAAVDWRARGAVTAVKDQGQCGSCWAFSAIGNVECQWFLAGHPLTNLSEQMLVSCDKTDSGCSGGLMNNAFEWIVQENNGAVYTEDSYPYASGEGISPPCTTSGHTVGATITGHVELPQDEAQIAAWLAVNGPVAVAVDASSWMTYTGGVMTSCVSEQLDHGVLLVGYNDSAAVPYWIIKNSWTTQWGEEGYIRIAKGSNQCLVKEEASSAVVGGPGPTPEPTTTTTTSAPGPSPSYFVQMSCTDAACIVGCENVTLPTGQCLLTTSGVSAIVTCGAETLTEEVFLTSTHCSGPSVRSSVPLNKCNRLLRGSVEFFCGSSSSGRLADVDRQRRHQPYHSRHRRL

Take `O=C(C[S+]=c1cc(-c2ccc(O)cc2)ss1)c1ccc2ccccc2c1` [Derivative 18]: the IC50 (usually the concentration needed to halve the response being measured) in assay [1] (setting [6]) was above 25 µM; in assay [3] it was 11.03 ± 0.03 µM. For the same compound, the inhibition at 100 µM at cruzipain [2] (setting [7]) stood at 77.1 ± 0.1%. Moreover, the inhibition at 25 µM in assay [3] (setting [8]) came to 75 ± 0.3%. The inhibition at 200 µM in assay [3] (setting [9]) worked out at 70%.

As to `Oc1ccc(-c2cc(=S)ss2)cc1` [Derivative 6], the results for the half-inhibitory concentration (IC50) in assay [1] (setting [6]) and in assay [4] were 25 ± 1 µM and 51 ± 2 µM, respectively. Also, in assay [1], the “SI (selectivity index)” value worked out at 2.0. Also, the inhibition at 100 µM at cruzipain [2] (setting [7]) turned out to be 59.3 ± 0.3%. The inhibition at 25 µM in assay [3] (setting [8]) stood at 35 ± 3%. Moreover, in assay [3] (setting [9]), the inhibition at 200 µM came out at 71%.

With `O=C(CS/C(C(=O)c1ccccc1)=C1\C=C(c2ccc(O)cc2)SS1)c1ccccc1` [Derivative 13], the IC50 in assay [1] (setting [6]) was 5.5 ± 0.9 µM; in assay [4], 34 ± 0.5 µM; in assay [3], 3.35 ± 0.14 µM. For the same compound, in assay [1], the “SI (selectivity index)” value came out at 6.2. Further, the inhibition at 100 µM on cruzipain [2] (setting [7]) is 61 ± 0.3%. Also, in assay [3] (setting [8]), the inhibition at 25 µM is 75 ± 6%. In addition, the inhibition at 200 µM in assay [3] (setting [9]) was 86%.

On to `COc1ccc(-c2cc(=[S+]CC(=O)c3ccccc3)ss2)cc1` [Derivative 20], for which the IC50 in assay [1] (setting [6]) is above 25 µM. For the same compound, at cruzipain [2] (setting [7]), the inhibition at 100 µM was 72 ± 0.1%.

For `O=C(Cc1ccccc1)Oc1ccc(-c2cc(=S)ss2)cc1` [Derivative 1], the IC50 in assay [1] (TULAHUEN) is above 25 µM. For the same compound, on cruzipain [2], the inhibition at 100 µM came to 21.3 ± 0.3%. In assay [3], the inhibition at 25 µM amounted to 33 ± 1.9% and the inhibition at 200 µM came to 77%.

For the compound `COc1ccc(C2=C/C(=C(\SCC(=O)c3ccc4ccccc4c3)C(=O)c3ccc4ccccc4c3)SS2)cc1` [Derivative 17], the IC50 in assay [1] (setting [6]) is above 25 µM. Moreover, the inhibition at 100 µM on cruzipain [2] (setting [7]) came to 82.6 ± 0.6%. In addition, the inhibition at 25 µM in assay [3] (setting [8]) was 52 ± 2.5%. Moreover, the inhibition at 200 µM in assay [3] (setting [9]) is 81%.

On to `COc1ccc(C2=C/C(=C(\SCC(=O)c3ccccc3)C(=O)c3ccccc3)SS2)cc1` [Derivative 16], for which the values for the half-maximal inhibitory concentration (IC50) in assay [1] (setting [6]) and in assay [3] were above 25 µM and 7.53 ± 0.1 µM, respectively. In addition, the inhibition at 100 µM at cruzipain [2] (setting [7]) was determined as 62.3 ± 0.3%. Further, the inhibition at 25 µM in assay [3] (setting [8]) stood at 63 ± 0.1%. For the same compound, the inhibition at 200 µM in assay [3] (setting [9]) came out at 77%.

For `O=C(Oc1ccc(-c2cc(=S)ss2)cc1)c1ccc(/C=C/C(=O)c2ccccc2O)cc1` [Derivative 9], the results for the IC50 in assay [1] (setting [6]) and in assay [4] were 25 ± 0.5 µM and 63 ± 2 µM, respectively. The “SI (selectivity index)” value in assay [1] is 2.5. Further, at cruzipain [2] (setting [7]), the inhibition at 100 µM worked out at 77.9 ± 0.6%. In addition, the inhibition at 200 µM in assay [3] (setting [9]) is 50%.

For the compound `O=C(COc1ccc(-c2cc(=S)ss2)cc1)c1ccc2ccccc2c1` [Derivative 12], the IC50 is above 25 µM in assay [1] (setting [6]) and 21.6 ± 6.1 µM on cruzipain [5]. The inhibition at 100 µM at cruzipain [2] (setting [7]) was 91.5 ± 0.6%. Besides, in assay [3] (setting [8]), the “TcTIM % Inhib25” value is on record as “ni ^d”. In addition, the inhibition at 200 µM in assay [3] (setting [9]) was 70%.

Regarding `O=C(COc1ccc(-c2cc(=S)ss2)cc1)c1ccccc1` [Derivative 11], the results for the IC50 (in assay [1] (setting [6]); against cruzipain [5]) were above 25 µM and 17.1 ± 3.6 µM, respectively. For the same compound, the inhibition at 100 µM on cruzipain [2] (setting [7]) was determined as 96.3 ± 0.7%.

On to `O=C(/C=C/c1ccccc1)Oc1ccc(-c2cc(=S)ss2)cc1` [Derivative 7], for which the IC50 in assay [1] (setting [6]) was above 25 µM. Moreover, at cruzipain [2] (setting [7]), the inhibition at 100 µM was 78.4 ± 0.6%. Also, the inhibition at 200 µM in assay [3] (setting [9]) was 14%.

In the case of `CC(=O)COc1ccc(-c2cc(=S)ss2)cc1` [Derivative 10], the IC50 in assay [1] (setting [6]) was above 25 µM. Moreover, at cruzipain [2] (setting [7]), the inhibition at 100 µM came to 73.9 ± 0.1%. In assay [3] (setting [8]), the inhibition at 25 µM is 61 ± 1%. Moreover, the inhibition at 200 µM in assay [3] (setting [9]) was 70%.

Consider `O=C(/C=C/c1ccc(C(=O)Oc2ccc(-c3cc(=S)ss3)cc2)cc1)c1ccccc1` [Derivative 8], for which the IC50 in assay [1] (setting [6]) is above 25 µM. Further, at cruzipain [2] (setting [7]), the inhibition at 100 µM stood at 58 ± 0.1%.

Consider `COc1ccc(-c2cc(=[S+]CC(C)=O)ss2)cc1` [Derivative 19], for which the IC50 in assay [1] (setting [6]) is above 25 µM; against cruzipain [5] it was 11.3 ± 0.6 µM; in assay [3], 3.26 ± 0.05 µM. For the same compound, the “IC50 against T. cruzi” value in assay [1] (setting [6]) is “inactive”. On cruzipain [2] (setting [7]), the inhibition at 100 µM was determined as 90.5 ± 0.7%. The inhibition at 25 µM in assay [3] (setting [8]) amounted to 73 ± 3.2%. In assay [3] (setting [9]), the inhibition at 200 µM was 95%.

Regarding `COc1ccc(-c2cc(=[S+]CC(=O)c3ccc4ccccc4c3)ss2)cc1` [Derivative 21], the IC50 is above 25 µM in assay [1] (setting [6]) and 17.7 ± 3.9 µM against cruzipain [5]. Besides, the inhibition at 100 µM on cruzipain [2] (setting [7]) stood at 90.2 ± 0.6%. In addition, in assay [3] (setting [9]), the inhibition at 200 µM worked out at 65%.

As for `COc1ccc(-c2cc(=S)ss2)cc1` [Derivative 5], the IC50 was above 25 µM in assay [1] (setting [6]), 4 ± 2 µM on cruzipain [5] and 1.2 ± 0.05 µM in assay [3]. For the same compound, the “IC50 against T. cruzi” value in assay [1] (setting [6]) is “inactive”. The inhibition at 100 µM at cruzipain [2] (setting [7]) worked out at 89 ± 0.5%. In addition, the inhibition at 25 µM in assay [3] (setting [8]) is 80 ± 2.3%. The inhibition at 200 µM in assay [3] (setting [9]) was 86%.

The values above are taken from PMC6332334, “3-H-[1,2]Dithiole as a New Anti-Trypanosoma cruzi Chemotype: Biological and Mechanism of Action Studies” (Molecules, 2015).
